1 molecule from patent publication US20230158152A1, “PROTEOLYSIS REGULATOR AND METHOD FOR USING SAME” (MEDSHINE DISCOVERY INC., priority 2020, published 2023) can be followed below.

For series [1], the system named is human lung cancer cell NCI-H2228. The experiment in a line: Anti-proliferative effect in human lung cancer cell NCI-H2228 (CellTiter-Glo). The format is cell-based. The conditions noted are these: NCI-H2228, 72 h, cell proliferation, cultured for 3 days. On the procedure: In this assay, the inhibitory effect of assay compounds on cell proliferation was assayed in human lung cancer cell NCI-H2228.
(1) Promega CellTiter-Glo luminescent cell viability assay kit (Promega-G7573). (2) 2104 EnVision® plate reader, PerkinElmer.
The tumor cell line was cultured in a 37° C., 5% CO2 incubator according to the above-mentioned culture conditions. Cells were passaged periodically, and cells in logarithmic growth phase were used for plating.
(1). Cells were stained with trypan blue and viable cells were counted; (2). The cell concentration was adjusted to an appropriate concentration;
(3). 90 μL of cell suspension was added to each well of the culture plate as shown in the table above, and cell-free culture medium was added to the blank control well; (4). The plate was incubated in an incubator at 37° C., 5% CO2, and 100% relative humidity overnight.
Preparation of a mother solution storage plate with 400 times the starting compound concentration: the compounds were diluted serially with DMSO from the highest concentration to the lowest concentration. The plate was prepared freshly every time it was used.
(1). 78 μL of cell culture medium was added to a 96-well plate with a V-shaped bottom. […]
(1). […] The culture plate was left at room temperature for 10 minutes to stabilize the luminescence signal; (9). The luminescent signal was detected on a 2104 EnVision plate reader. […]
For orientation: In ATP-based viability assays light output follows the ATP content of the culture.

The target in series [2] is T1, Recombinant human-derived ALK (Homo sapiens, UniProt Q9UM73).
T1 construct: BAG10812.1; 1058-1620 (terminal) amino acids; GST (N); made in house
The experiment in a line: Inhibitory activity of compounds against ALK kinase (time-resolved fluorescence resonance energy transfer). The format is biochemical. The conditions noted are these: 30 μM ATP, 50 nM ULight-poly GT peptide. The method, then:
The inhibitory activity of the compounds on ALK kinase was detected by time-resolved fluorescence resonance energy transfer method, that is, the ratio of fluorescence signals at 665 nm/615 nm was used to represent the activity of the enzyme.
Assay buffer solution: 50 mM 2-[4-(2-hydroxyethyl)-1-piperazinyl]ethanesulfonic acid buffer solution (HEPES) (pH 7.5), 10 mM MgCl2, 1 mM EDTA 0.01%, polyoxyethylene lauryl ether (Brij 35), 2 mM dithiothreitol (DTT).
Enzyme: Recombinant human-derived ALK (gene accession number: BAG10812.1; 1058-1620 (terminal) amino acids) was expressed with a N-terminal GST fusion protein (90 kDa) using a baculovirus expression system.
Enzyme substrate: 50 nM ULight-poly GT polypeptide.
Detection: europium-labeled anti-phosphotyrosine (PT66) antibody.
1. Compounds dissolved in 100% DMSO were added to 384-well plates by acoustic technique; 2. Recombinant human-derived ALK enzyme and enzyme substrate (50 nM ULight-poly GT peptide) or zymolyte (30 μM ATP) were dissolved in freshly prepared assay buffer; 3. The above ALK enzyme and enzyme substrate in the buffer solution were transferred to reaction wells; 4. Then, the zymolyte in the buffer solution was added to the above reaction wells to initiate the reaction; 5. The plate was incubated at room temperature for 1 hour; 6. The detection mixture (PT66 antibody and EDTA) was added to terminate the reaction, and the mixture was incubated at room temperature for 60 minutes; 7. Then, the plate was read using a microplate reader to obtain the ratio of fluorescence signals at 665 nm/615 nm.
Data analysis: Emission ratio (665 nm/615 nm) in the original data was involved in the calculation of the inhibition rate. The concentration and inhibition rate were analyzed using XLfit software 205 mode (4 Parameters Logistic Model) to obtain IC50 value and curve.

Series [3] in a line: Pharmacokinetics of the compound in mice. In kind it is in vivo, C57BL/6 (C57) mice. An excerpt:
In this study, C57BL male mice were selected as assay animals, and the LC/MS/MS method was used to quantitatively determine the compound concentration at different time points in the plasma of mice administered intravenously or orally with the assay compound, so as to evaluate pharmacokinetic profile of the assay compound in mice.
C57BL/6 (C57) mice (male, 17-20 g, 7-10 weeks old, from Shanghai lingchang).
A clear solution of the assay compound was intravenously injected into C57 mice via tail (fasted overnight) or administered to C57 mice by gavage (fasted overnight). 200 μL of blood was collected from the saphenous vein at 0.0833, 0.25, 0.5, 1, 2, 4, 8 and 24 h after intravenous administration, and placed in an anticoagulant tube (Jiangsu Kangjian Medical Co., Ltd.) supplemented with EDTA-K2. The mixture was thoroughly vortexed at 4° C. and centrifuged at 3200 g for 10 min. Blood was collected from the saphenous vein at 0.25, 0.5, 1, 2, 4, 6, 8 and 24 h after oral gavage administration, and placed in an anticoagulant tube (Jiangsu Kangjian Medical Co., Ltd.) supplemented with EDTA-K2. The mixture was thoroughly vortexed and centrifuged at 3200 g for 10 min. Blood drug concentration was determined by LC-MS/MS, and relevant pharmacokinetic parameters were calculated with the non-compartmental model Linear/log trapezoidal method using Phoenix WinNonlin 6.3 pharmacokinetic software.

The mark [4] stands for this setting: male, C57BL/6, mouse, plasma, intravenous injection (2 mg/kg).

T1 sequence (Q9UM73 1058-1620): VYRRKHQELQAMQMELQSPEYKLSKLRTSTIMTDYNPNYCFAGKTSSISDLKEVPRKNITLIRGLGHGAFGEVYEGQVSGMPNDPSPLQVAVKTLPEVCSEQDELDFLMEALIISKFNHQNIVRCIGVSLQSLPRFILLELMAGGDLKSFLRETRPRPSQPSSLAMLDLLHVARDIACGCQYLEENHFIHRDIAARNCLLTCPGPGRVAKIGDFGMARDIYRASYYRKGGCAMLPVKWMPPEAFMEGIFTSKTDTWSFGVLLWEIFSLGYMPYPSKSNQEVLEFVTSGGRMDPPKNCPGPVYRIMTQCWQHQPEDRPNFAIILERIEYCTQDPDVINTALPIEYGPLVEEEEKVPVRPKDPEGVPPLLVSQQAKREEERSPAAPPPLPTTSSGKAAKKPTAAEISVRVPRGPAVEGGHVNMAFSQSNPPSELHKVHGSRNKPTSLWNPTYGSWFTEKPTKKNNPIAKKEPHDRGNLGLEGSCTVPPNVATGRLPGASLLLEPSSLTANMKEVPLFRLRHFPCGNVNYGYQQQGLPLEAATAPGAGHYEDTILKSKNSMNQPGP

In series [1], `Cc1cc(Nc2ncc(Cl)c(Nc3ccccc3S(=O)(=O)C(C)C)n2)c(OC(C)C)cc1C1CCN(CC(=O)NCCOc2ccc3occ(C4CCC(=O)NC4=O)c3c2)CC1` (stereo not drawn) [WX001] displayed an IC50 of 91 nM. For the same molecule, in series [2], the IC50 was determined as 21.8 nM. In series [3] (intravenous injection (2 mg/kg)), the “Area under the curve (0-inf)” value stood at 3.69 µM·h. Further, in series [3] (setting [4]), the clearance came to 10.3 mL/min/kg and the half-life was 1.74 h. Also, the bioavailability in series [3] (male, C57BL/6, mouse, plasma, oral (10 mg/kg), read-out: Bioavailability F) was determined as 11.7%. For the same molecule, in series [3] (oral (10 mg/kg)), the “Area under the curve (0-inf)” value is 2.33 µM·h, the Peak concentration turned out to be 0.68 µM and the Time to peak worked out at 0.75 h.

The term IC50 denotes the midpoint of a concentration-inhibition curve. A word on the clearance: it is a measure of how efficiently the substance is removed, as volume per time. For orientation: half-life means how long it takes for the measured level to halve. A high value points to slow decline. The bioavailability is dose-corrected exposure relative to a reference, in per cent.
